# Laboratory results taken from patent US10201564B2, “Methods of using inhaled nitric oxide gas for treatment of acute respiratory distress syndrome in children” (Mallinckrodt Hospital Products IP Limited, priority 2014, dated 2019).
# Tested on: patients with moderately severe Acute Lung Injury (ALI)
# Assay: Adult ALI/ARDS study, 5 ppm iNO versus placebo: efficacy and respiratory parameters
# Type: in vivo, human
# Details: for mortality, benefit versus control: adults
# Procedure: A large-scale, randomized, blinded, placebo-controlled study was carried out in the Intensive Care Units (ICUs) of 46 US hospitals to evaluate the efficacy of low-dose (5 ppm) iNO in 385 patients with moderately severe Acute Lung Injury (ALI). The primary endpoint of this study was number of days alive and off assisted breathing.
# Patients had acute lung injury (ALI), defined by a modification of American-European Consensus Conference criteria (PaO2/inspired oxygen concentration [FiO2] ratio of ≤250 mm Hg), due to causes other than severe sepsis. Patients with evidence of non-pulmonary system failure at the time of randomization and sepsis-induced ARDS were excluded. Patients were also excluded if they had sustained hypotension requiring vasopressor support, hemodynamic profiles supporting severe sepsis, severe head injury, severe burns, or evidence of other significant organ system dysfunction at baseline.
# Patients were randomly assigned to receive either inhaled placebo gas (nitrogen) or 5 ppm of iNO (INO Therapeutics Inc., Port Allen, La.). All patients, healthcare professionals, and investigators were blinded to the assigned treatment. Inhaled NO was administered via INOvent® delivery system (Datex-Ohmeda, Madison, Wis.) that blended treatment gas (nitrogen or NO at 100-ppm balance nitrogen) 1:20 with ventilator gases to achieve a target ppm value in the inspiratory limb of the ventilator.
# All patients using the iNO delivery system received mechanical ventilatory support. Treatment continued with active or placebo gas until one of the following criteria were met: [1] end of trial (28 days); [2] death; or [3] adequate oxygenation (arterial oxygen saturation by pulse oximetry [SpO2]≥92% or PaO2 of ≥63 mm Hg) without treatment gas at ventilator settings of FiO2≤0.4 and positive end-expiratory pressure (PEEP) of ≤5 cm H2O. Decreases in treatment gas continued in 20% decrements (titrated down by 1 ppm for inhaled NO) every 30 minutes until either the treatment gas concentration reached 0% or oxygenation criteria were not satisfied. If oxygenation criteria were not met, treatment gas concentration was titrated up until they were again achieved. Increments of upward titration were determined by the clinician, based on degree of arterial desaturation.
# Baseline oxygenation measures included PaO2, arterial partial pressure of CO2 (PaCO2), SpO2, FiO2, PEEP, PaO2/FiO2 ratio, […], tidal volume, and mean airway pressure. Respiratory parameters (FiO2, PEEP, and PaO2/FiO2 ratio) were recorded on case report forms every 12 hours during mechanical ventilation.
# Between-group differences in baseline clinical and demographic characteristics were assessed with the Fisher's exact test and the chi-square test for categorical variables and with the Wilcoxon rank sum test for continuous variables. Baseline oxygenation and respiratory/oxygenation parameters in the two groups were compared using Wilcoxon rank sum tests. The areas under the curve (AUCs) of FiO2, PEEP, and PaO2/FiO2 ratio were calculated using the trapezoidal rule. The null hypothesis that the respective AUCs were normally distributed was rejected employing the Shapiro-Wilk test. A Wilcoxon rank sum test was utilized to assess the differences in each median AUC between treatment groups. A p value <0.05 was considered significant.
structure (smiles),measurement,setting,value
"[N]=O [Nitric Oxide, nitric oxide]","days alive and meeting oxygenation criteria for extubation, benefit versus control","5 ppm iNO vs nitrogen gas, intent-to-treat",no significant benefit
same,"mortality, benefit versus control","5 ppm iNO vs nitrogen gas, intent-to-treat, listed as Inhaled NO",did not improve
same,"mortality, benefit versus control","5 ppm iNO vs nitrogen gas, intent-to-treat, listed as iNO",no significant benefit
same,"aggregate per-patient changes from baseline in supplemental oxygen, PEEP, or PaO2/FiO2 ratio, between groups","during mechanical ventilation, iNO vs placebo",no significant differences
same,partial pressure of arterial oxygen (PaO2),"initial 24 hours of treatment, resolved by 48 hours, p<0.05",significant increase
same,"days alive and off assisted breathing, benefit versus control","primary endpoint, 5 ppm iNO vs nitrogen gas, intent-to-treat",no significant benefit
